In patent US8748598B2, “Analogs of 3-O-acetyl-11-keto-beta-boswellic acid” (Laila Nutraceuticals, priority 2004, dated 2014):
In brackets after ≈: the same amount, converted by molar mass.

Key:
MDA-MB-231 [1] = experiment: MTT cell proliferation assay, MDA-MB-231; format: cell-based, human; conditions: Homo sapiens, MDA-MB-231; Table 4
Outline: (§1)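 Cells exposed three days to compounds at concentrations up to 10 μg/ml (≤0.5% DMSO), then 0.5 mg/ml MTT for 4 h at 37 °C. Solubilized formazan read at 540 nm; IC50 calculated from quadruplicate wells.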

MCF-7 = experiment: MTT cell proliferation assay, MCF-7; format: cell-based, human; conditions: Homo sapiens, MCF7; Table 4
Outline: as §1

A549 = experiment: MTT cell proliferation assay, A549; format: cell-based, human; conditions: Homo sapiens, A549; read-out: Inhibition of cell proliferation (IC50)
Method: (§2) MTT [3-(4,5-dimethylthiazol-2-yl)-2,5-diphenyltetrazolium bromide] incorporation based cell proliferation assay was performed as described previously (Reference). The cytotoxic efficacy of some analogs was evaluated in different cell lines by MTT cell proliferation assay kit (Roche Applied Sciences, Germany). The assay was carried out according to the instruction provided by the vendor. Briefly, in brief, equal numbers of cells was plated in 96-well flat-bottomed plates in 100 μl of medium and were exposed to different analogs selected from 1 to 63 at various concentrations up to 10 μg/ml for a period of three days. Vehicle control culture wells received only a maximum of 0.5% DMSO. Thereafter, 0.5 mg/ml of MTT reagent was added to each well and the microplate was incubated further for 4 h at 37° C. in presence of 5% CO2. Finally, the cells were solubilized by adding solubilizing solution and allowed to incubate at 37° C. overnight. After complete solubilization of the formazan crystals the absorbance was read at 540 nm in a microplate reader (BioRad, USA). The results (mean OD±SD) obtained from quadruplicate wells were used in calculation to determine the inhibition of cell proliferation (50% of inhibitory concentration, IC50) of the test compounds.

A375 = experiment: MTT cell proliferation assay, A375; format: cell-based, human; conditions: Homo sapiens, A-375; A375; read-out: Inhibition of cell proliferation (IC50)
Method: as §2

B16 = experiment: MTT cell proliferation assay, B16; format: cell-based, mouse; conditions: Mus musculus, B16; read-out: Inhibition of cell proliferation (IC50)
Method: as §2

A2058 = experiment: In vitro antitumor activity, A2058; format: cell-based; conditions: Homo sapiens, read-out: Inhibition of cell proliferation (IC50)
Method: as §2, with “USA).” for “USA). The results (mean OD±SD) obtained from quadruplicate wells were used in calculation to determine the inhibition of cell proliferation (50% of inhibitory concentration, IC50) of the test compounds.”

DU145 = experiment: In vitro antitumor activity, DU145; format: cell-based; conditions: Homo sapiens, DU-145, read-out: Inhibition of cell proliferation (IC50)
Method: as §2, with “USA).” for “USA). The results (mean OD±SD) obtained from quadruplicate wells were used in calculation to determine the inhibition of cell proliferation (50% of inhibitory concentration, IC50) of the test compounds.”

SKBR3 = experiment: In vitro antitumor activity, SKBR3; format: cell-based; conditions: Homo sapiens, SK-BR-3, read-out: Inhibition of cell proliferation (IC50)
Method: as §2, with “USA).” for “USA). The results (mean OD±SD) obtained from quadruplicate wells were used in calculation to determine the inhibition of cell proliferation (50% of inhibitory concentration, IC50) of the test compounds.”

HT-29 = experiment: In vitro antitumor activity, HT-29; format: cell-based; conditions: Homo sapiens, read-out: Inhibition of cell proliferation (IC50)
Method: as §2, with “USA).” for “USA). The results (mean OD±SD) obtained from quadruplicate wells were used in calculation to determine the inhibition of cell proliferation (50% of inhibitory concentration, IC50) of the test compounds.”

[2] = system: Human umbilical vein endothelial cells (HUVEC); experiment: In vitro capillary-like tube formation assay; format: cell-based; conditions: HUVEC on Cultrex, 1, 2.5 and 5 μg/ml, 16 h
Method: In vitro capillary formation assay was performed with Human umbilical vein endothelial cells (HUVEC), cultured on 10 mg/ml basement membrane extract (BME—Cultrex®, R&D Systems, USA) bed. The protocol of in vitro endothelial tube formation assay was the same as described earlier with some modifications (Reference). Briefly, four hundred microliters of Cultrex was coated at 4° C. in each well of 24-well culture plate and allowed to gel at 37° C. for 1 h. HUVECs were plated at a density of 7.5×10^4 cells per well with 400 μl of DMEM supplemented with 10% fetal bovine serum and 4.5 g/l D-glucose. The cells were then treated with either 0.5% DMSO or different concentrations of LI-51255 for 16 hours. Pictures were taken under a Nikon Eclipse TS 100 microscope equipped with a Nikon Coolpix camera (FIG. 1B).

AKT pathway = AKT pathway western immunoblot in MDA-MB-231 cells; format: cell-based, human; conditions: MDA-MB-231, 10 μg/ml, 0-240 min
Method: Equal number of MDA-MB-231 human breast tumor cells (ER-) was plated in 25 cm^2 cell culture flasks. The cells treated with either 0.5% DMSO as vehicle or 10 μg/ml of LI-51255 for 0, 5, 10, 20, 30, 60, 120 and 240 min. The cells were lysed in cell lysis buffer.

MDA-MB-231 [3] = experiment: MDA-MB-231 clone (colony) formation in vitro; format: cell-based, human; conditions: 1.0, 1.5, 2.0, 2.5 μg/ml, 8 days
Method: Inhibitory efficacy in clone formation of LI-51255 was tested by following the procedure described earlier with some modifications (Wu et al. 2005). Briefly, MDA-MB-231 cells were harvested and seeded into 6-well plates (100 cells/ml). The cells were allowed to grow for 4 days and thereafter, the cells were incubated with DMEM containing either 0.5% DMSO or 25 μg/ml AKBA or different concentrations (1.0, 1.5, 2.0, 2.5 μg/ml) of LI-51255 for further 8 days. Fresh medium containing test agents was replaced at every 24 h. Finally, the wells were washed three times with PBS and fixed in methanol for 15 min. The cells were stained with Giemsa stain and observed under microscope. The image of the stained wells were captured digitally (Kodak Image Station 4000MM, Carestream Health Inc., New Haven, Conn.) and number of colonies were counted and analyzed by using NIH Image J software.

[4] = system: B16 murine melanoma cells; experiment: Cell cycle analysis by flow cytometry; format: cell-based; conditions: 24 h
Method: For flow cytometry, cells were harvested after the treatment period, washed with phosphate buffered saline (PBS), and adjusted the cell count at 2×10^6 cells per milliliter. The cells were fixed in 70% ethanol for 30 min at 4° C. Cells were then washed two times with PBS and stained with 0.5 μg/ml propidium iodide at 37° C. for 30 min and analyzed by flow cytometry. Data were acquired on a FACS Scan flow cytometer (Becton Dickinson) and analyzed by using the Cellquest software.

IC50 (MDA-MB-231 [1]): 3.45 µg/mL (≈ 6.22 µM) | IC50 (MCF-7): 13 µg/mL (≈ 23.4 µM) | IC50 (A549): 6.83 µg/mL (≈ 12.3 µM) | IC50 (A375): 3.53 µg/mL (≈ 6.36 µM) | IC50 (B16): 4.35 µg/mL (≈ 7.84 µM) | IC50 (A2058): 3.59 µg/mL (≈ 6.47 µM) | IC50 (DU145): 4.24 µg/mL (≈ 7.64 µM) | IC50 (SKBR3): 5.3 µg/mL (≈ 9.55 µM) | IC50 (HT-29): 8.87 µg/mL (≈ 16 µM)
SMILES: CC(=O)O[C@@H]1CC[C@@]2(C)C(CC[C@]3(C)C2C(=O)C=C2C4[C@@H](C)[C@H](C)CC[C@]4(C)CC[C@]23C)[C@@]1(C)C(=O)NCCN (stereo partly shown) [Analog 21]
capillary-like tube formation [2]: dose dependent inhibition | phosphorylated AKT (ser 473) protein expression (AKT pathway): down regulating AKT phosphorylation | MDA-MB-231 colony formation (MDA-MB-231 [3]): potent inhibition of clone formation | cell cycle progression [4]: interrupts cell cycle progression at sub G1 phase
